Results taken from patent publication US20100093611A1, “COMPOUNDS AND METHODS FOR TREATING OR PREVENTING AUTOIMMUNE DISEASES” (priority 2007, published 2010).

Tests used:
IFN-α signaling pathway = test: High-Throughput Integrated Transcriptional Screening (HITS), qPCR of IFN-α signature gene set in THP-1 cells; type: cell-based, human; settings: compound 10 μM, 100 IU/ml IFN-α 4 h, a gene inhibited by more than 50% gets its maximum score, scores added, hit if greater than 50% of maximum
Method: The unique gene expression signature of the IFN-α signaling pathway was established in THP-1 cells by comparing the gene profiles of the fully activated IFNα pathway to the basal gene expression. THP-1 cells were stimulated either with 100 IU/ml IFN-α, 100 IU/ml IFN-γ, or 10 ng/ml TNF-α to generate the activated pathway gene signatures.
In one embodiment, the compounds of Table 1 were used to identify different mechanisms of action as identified from primary screening. If a gene is inhibited by more than 50% then it receives its maximum score (all or none type of scoring).
THP-1 cells seeded at 8×10^5 cells/ml were treated with either compound (10 μM final concentration) or vehicle control (0.1% DMSO) for 30 minutes prior to a four hour stimulation with 100 IU/ml IFN-α or PBS. Plates were incubated at 37° C. in a humidified incubator. Cell lysis and RNA isolation were carried out according to the manufacturer's instructions (TurboCapture mRNA Kit, Qiagen Inc.). PCR primer pairs were designed for each of the genes identified through the global gene expression analysis using Primer 3 based method (see below for primer sequences). Each primer was evaluated for the efficient production of a single band of appropriate size in the presence of template RNA and the lack of distinct amplification products in a non-template control. Real time PCR reactions were carried out in SYBR green master mix (Quanta biosciences) on ABI9700 thermocyclers.
We used the house keeping gene, GAPDH, as the normalization control for the IFN-α gene signature set to correct the overall variability in the qPCR based HITS process. The corrected profiles were then normalized to the basal gene expression levels determined by using the vehicle only treatments. We subtracted the vehicle only control gene value from the test compound gene profiles, gene per gene (see FIG. 1).

[1] = tested on: SLE-associated gene signature as induced by SLE serum; test: SLE serum-induced IFN-α gene signature in freshly isolated monocytes (HITS qPCR); type: cell-based, human; settings: for Percentage inhibition of the six most robustly induced IFN-α signature genes induced by SLE serum: 1 μm, monocytes stimulated with 50% SLE patient serum, mean of six genes vs vehicle control; for Upregulation of the six most robustly induced IFN-α signature gene set by 50% lupus serum (in words): freshly isolated monocytes, dose dependent (FIG. 4)
Text: RNA from lysed cells was examined by qPCR analysis in HITS assay. […] Each bar represents the average+/−SEM of three independent experiments using serum from different SLE patients.
Stimulation of healthy donor PBMCs with serum isolated from SLE patients induces the up-regulation of IFN-α pathway-associated genes (Interfon-induced genes, IFIGs), such as MX1^31. Furthermore, expression of IFIG correlates with disease severity and organ involvement^31, 32. To further evaluate the role of small molecular inhibitors on the type I IFN gene signature, freshly isolated monocytes stimulated with 50% lupus serum were used in HITS assays. […] Importantly, these experiments were performed with SLE serum from patients with well characterized biochemical profiles.
SLE patient and control serum were purchased from Bioreclamation (Hicksville, N.Y.). IFN-α 2a was obtained from PBL Biomedical laboratories (Piscataway, N.J.). Fresh PBMCs from healthy donor were prepared by Ficoll-hypaque fraction according to the manufactory's instruction. Cells were cultured at 2×10^5 cells/0.1 ml in 96-well flat-bottomed plates in culture medium.
To determine the effect of compounds on gene expression, compounds and vehicle controls were pre-incubated with cells for 30 min at 37° C. before stimulation with 50% lupus serum or 100 IU/ml IFN-α 2a were incubated with PBMC. After 6 h stimulation, cells were lysed in Qiagen 2XTCL lysis buffer followed by HITS analysis (see FIG. 2).

[2] = tested on: CD80, CD123 and CD38 cell surface expression on monocytes; test: IFN-α induced primary human monocyte activation/differentiation, cell surface markers by FACS; type: cell-based; settings: 500 IU/ml IFN-α, 48 h, FACS (FIG. 5)
Method: Freshly isolated monocytes from healthy donor were pre-incubated with compounds or vehicle control for 0.5 hour before stimulation with 500 IU/ml IFN-α. Cell surface expression of CD80, CD123 and CD38 was evaluated by FACS 48 h post-stimulation. Each bar represents the average+/−SEM of three independent experiments.
Since deregulated differentiation of DCs induced by IFN-α may be a critical contributing factor in SLE^13, the impact of Apicidin 1a, IKK2 inhibitor IV, and JAK inhibitors in DC differentiation was examined. Human monocytes were stimulated with IFN-α and the expression of CD38 CD80 and CD123 differentiation markers was monitored^33.
(§1) For monocyte differentiation assays, human monocytes were isolated from the blood of healthy donors according to manufactory's instructions (Miltenyi Biotec Inc; Auburn Calif.). 5×10^5 freshly prepared monocytes were pre-incubated with compounds or vehicle control for 30 min. Cells were then incubated in RPMI 1640 medium (Invitrogen, Carlsbad, Calif.) including 10% fetal calf serum (Invitrogen) supplemented with 500 IU/ml IFN-α 2a for 48 hr. Cell surface protein were stained with FITC-labeled anti-CD80, PE-labeled anti-CD123, PEcy7 labeled anti-CD38, APC cy7 labeled MHC class II (all BD, San Jose, Calif.) and analyzed on a FACS Calibur flow cytometer (BD). Cytokine and chemokine levels in supernatants from monocyte differentiation assays were measured using searchlight human cytokine array (Pierce Inc, Woburn, Mass.). (see FIG. 5)

IP-10 [3] = test: IFN-α induced IP-10 secretion from human monocytes; type: cell-based; settings: 500 IU/ml IFN-α, 48 h (FIG. 6A)
Method: (§2) Freshly isolated monocytes were treated with 500 IU/ml IFN-α with or without indicated compounds for 48 h. Supernatants were collected and MCP-1 and IP-10 levels were analyzed by Searchlight Inc. Percentage inhibition represents inhibition of the upregulation of chemokine induced by IFN-α compared to the vehicle control. Panel A: Effect of compounds on IP-10 secretion. Panel B: Effect of compounds on MCP-1 secretion. Each bar represents the average+/−SEM of three independent experiments. Panel C: IKK2 inhibitor IV blocked IFN-α induced IP-10 protein level in vivo. Female NZBW/F1 mice were treated with either antibody (i.p. injection 30 mg/kg) or IKK2 inhibitor (45 mg/kg BID) as described in materials and methods. Adenovirus-IFN-a (1×10^10 viral particles) was administrated i.v. at time 0. Samples were collected 6 h post-stimulation, IP-10 protein level was measured by ELISA. Data representative of two experiments.
(§3) Multiple chemokines, including monocyte chemo-attractant protein-1 (MCP-1) and activated T cell chemokine interferon inducible protein 10 (IP-10) regulate leukocytes migration and infiltration into inflammated organs^34. Expression of MCP-1 and IP-10 are elevated in serum of SLE patients^34, 35 and in monocytes of healthy donors stimulated in vitro by IFN-α^36. Consequently, the effect of Apicidin 1a, IKK2 inhibitor IV, and JAK inhibitors in IP-10 and MCP-1 expression induced by IFN-α from human monocytes was examined.
as §1, with “Cells were then incubated in RPMI 1640 medium (Invitrogen, Carlsbad, Calif.) including 10% fetal calf serum (Invitrogen) supplemented with 500 IU/ml IFN-α 2a for 48 hr.” left out, “(see FIG. 5)” left out

MCP-1 = test: IFN-α induced MCP-1 secretion from human monocytes; type: cell-based; settings: 500 IU/ml IFN-α, 48 h (FIG. 6B)
Method: as §2, §3
as §1, with “Cells were then incubated in RPMI 1640 medium (Invitrogen, Carlsbad, Calif.) including 10% fetal calf serum (Invitrogen) supplemented with 500 IU/ml IFN-α 2a for 48 hr.” left out, “(see FIG. 5)” left out

HSV-1 = test: In vitro anti-viral assay, HSV-1/luciferase replication in Hep-2 cells with IFN-α; type: cell-based, Herpes Simplex Virus-1
Method: Hep-2 cells were seeded at 2×10^4 cells/well in 96 well plates. Cells were infected with HVS1 at an Multiplicity Of Infection (MOI) of 5 for 1 h at 37° C. 24 hours post-seeding. Virus was aspirated, cells were washed, and 200 μl of medium with or without IFN-α or compound were added as indicated. After 48 h, cells were washed, lysed and luciferase activity were measured according to the manufacturer's instructions. […] Each bar represents the mean+/−SEM of triplicates from one experiment.
Herpes Simplex Virus-1 (HSV-1) represents one of the major recurrent virus infections observed in SLE patients^37. Type-I and Type-II IFN signals are known to block HSV-1 dissemination in mice^38, and as a consequence, a therapeutic approach that neutralizes their combined activity may constitute an important safety concern. Therefore, the impact of Apicidin 1a, IKK2 inhibitor IV, and JAK inhibitors on HSV-1 replication regulated by IFN-α in Hep-2 cells was examined in vitro. HSV-1/luciferase was used to infect Hep-2 cells, and viral replication was monitored by luciferase expression.
Hep-2 cells were propagated in MEM (Invitrogen) with 10% fetal bovine serum. HSV-1 recombination virus with both firefly and Renilla luciferase genes in a divergent orientation from a single multiple cloning site were a gift from Dr. Leib's lab. Hep-2 cells were seeded at 2×10^4 cells/well in 96 well plate, 24 h post seeding, cells were infected with virus at an MOI of 5, after absorption for 1 h at 37° C., free viral particles were removed by aspiration, cells were washed, and 200 μl medium containing IFN-α with or without test compounds. After 48 h incubation, cells were washed and lysed in 20 μl of Passive Lysis Buffer (Promega Inc; Madison, Wis.) frozen, thawed, and assayed for firefly and Renilla luciferase activity using the Dual Luciferase Assay kit (Promega).

[4] = tested on: freshly isolated monocytes; test: Cytotoxicity at the concentration used in the SLE serum monocyte assay; type: cell-based, human; settings: 1 μm
IP-10 [5] = test: IFN-α induced chemokine release in vivo (adenovirus IFN-α5, serum IP-10 ELISA); set-up: species or system Female NZBW/F1 mice
Method: as §2
Next, the effect of IKK-2 inhibitor IV in IP-10 and MCP-1 expression was examined in vivo. To induce IP-10 and MCP-1 expression, mice were infected with adenovirus encoding IFN-α5. As a result, IP-10 but not MCP-1 levels were detected in serum (data not shown). […]
Female NZBW/F1 mice (Jackson Laboratories, Bar Harbor, Me.) were housed in pathogen-free conditions with access to food and water. […] Serum levels of IP10 were assessed by ELISA (R&D Systems, Minneapolis, Minn.). […]

In the case of `CCC(=O)CCCCC[C@@H]1NC(=O)[C@H]2CCCCN2C(=O)C([C@@H](C)CC)NC(=O)[C@H](Cc2cn(OC)c3ccccc23)NC1=O` (stereo partly drawn) [Compound 2, Apicidin], the “HTS Score” value (IFN-α signaling pathway) was 0.89, the “Percentage inhibition of the six most robustly induced IFN-α signature genes induced by SLE serum” value (shortened to “Percentage inhibition”) [1] was 80% and the “Upregulation of the six most robustly induced IFN-α signature gene set by 50% lupus serum (in words)” value (shortened to “Upregulation … by 50% lupus serum (in words)”) [1] was “blocked the upregulation”. For the same molecule, the CD38 expression [2] was “limited to the highest dose of 1 μM”, the CD80 expression [2] was “blocks CD80 expression” and the CD123 expression [2] was “limited to the highest dose of 1 μM”. For the same molecule, the “Expression of IP-10 induced by IFN-α” value (IP-10 [3]) was “no neutralization”, the “MCP-1 expression induced by IFN-α” value (MCP-1) was “totally neutralizes MCP-1 expression” and the “Effect on anti-viral effects of IFN-α at low dose” value (HSV-1; HSV-1, 0.1 μm (FIG. 7C)) was “inhibited anti-viral effects of IFN-α”. For the same molecule, the “IFN-α dependent anti-viral activity at higher dose” value (HSV-1; HSV-1, higher dose where MCP-1 production is inhibited (FIG. 7C)) was “abolished or viral growth was actually promoted” and the Cytotoxicity [4] was “did not exhibit cytotoxicity”.
`O=C(CCCCCN1C(=O)c2cccc3cccc(c23)C1=O)NO` [Compound 3, scriptaid] was tested, and the “HTS Score” value (IFN-α signaling pathway) was 0.88.
In the case of `CC(/C=C/C(=O)NO)=C\[C@@H](C)C(=O)c1ccc(N(C)C)cc1` [Compound 4, Trichostatin A], the “HTS Score” value (IFN-α signaling pathway) was 1.
In the case of `NC(=O)Nc1sc(-c2ccc(F)cc2)cc1C(N)=O` [Compound 5, IKK-2 Inhibitor IV], the “HTS Score” value (IFN-α signaling pathway) was 0.95, the “Percentage inhibition” value [1] was 77% and the “Upregulation … by 50% lupus serum (in words)” value [1] was “blocked the upregulation”. The CD38 expression [2] was “dose-dependent inhibition”, the CD80 expression [2] was “dose-dependent inhibition” and the CD123 expression [2] was “dose-dependent inhibition”. For the same molecule, the “Expression of IP-10 induced by IFN-α” value (IP-10 [3]) was “block the expression of IP-10”, the “MCP-1 expression induced by IFN-α” value (MCP-1) was “restricted to the highest dose” and the “IFN-α induced IP-10 protein level in vivo (in words)” value (IP-10 [5]; Female NZBW/F1 mice, 45 mg/kg BID, 6 h post-stimulation, ELISA (FIG. 6C)) was “blocked”. The “Inhibition of levels of serum IP-10” value (IP-10 [5]; mice infected with adenovirus encoding IFN-α5, 6 h post-stimulation, IKK2 inhibitor 45 mg/kg BID, antibody i.p. 30 mg/kg) was 98%, the “Effect on IFN-α dependent anti-viral activity (HSV-1 replication)” value (HSV-1; MOI 5, 48 h, even at higher doses (FIG. 7A, 7B)) was “retained the majority of IFN-α dependent anti-viral activity” and the Cytotoxicity [4] was “did not exhibit cytotoxicity”.
In the case of `CC(C)(C)c1nc2c3ccc(F)cc3c3c(=O)[nH]ccc3c2[nH]1` [Compound 7, JAK Inhibitor I], the “HTS Score” value (IFN-α signaling pathway) was 0.9, the “Percentage inhibition” value [1] was 60% and the “Upregulation … by 50% lupus serum (in words)” value [1] was “blocked the upregulation”. For the same molecule, the CD38 expression [2] was “dose-dependent inhibition”, the CD80 expression [2] was “dose-dependent inhibition” and the CD123 expression [2] was “dose-dependent inhibition”. For the same molecule, the “Expression of IP-10 induced by IFN-α” value (IP-10 [3]) was “block the expression of IP-10”, the “MCP-1 expression induced by IFN-α” value (MCP-1) was “restricted to the highest dose” and the Cytotoxicity [4] was “did not exhibit cytotoxicity”.
With `C=CC(=O)C1=CC2C=CC=CC2C=C1` (stereo not drawn) [Compound 8, JAK3 Inhibitor V] the “HTS Score” value (IFN-α signaling pathway) was 0.79.
Oxamflatin [Compound 1] was tested, and the “HTS Score” value (IFN-α signaling pathway) was 1.
